Assay results from BindingDB's records for doi:10.1016/j.bioorg.2016.07.007 (Jamia Hamdard (Hamdard University), 2016).

Molecular target: Glycogen synthase kinase-3 beta (Homo sapiens, UniProt P49841)
Assay: GSK-3β activity assay
Procedure: In a typical assay, 10 µL of test compound of different concentrations (dissolved in dimethyl sulfoxide [DMSO] and diluted with assay buffer) and 10 µL (20 ng) of enzyme were added to each well followed by 20 µL of assay buffer containing 25 µM substrate and 1 µM ATP. The final DMSO concentration in the reaction mixturewas less than 1%. After incubation at 30 °C for 30 min, the enzymatic reaction was quenched with 40 µL of Kinase-Glo reagent. Luminescence was recorded after 10 min using Infinite F200 PRO multimode reader (Tecan).

Chain of Glycogen synthase kinase-3 beta (P49841 whole entry): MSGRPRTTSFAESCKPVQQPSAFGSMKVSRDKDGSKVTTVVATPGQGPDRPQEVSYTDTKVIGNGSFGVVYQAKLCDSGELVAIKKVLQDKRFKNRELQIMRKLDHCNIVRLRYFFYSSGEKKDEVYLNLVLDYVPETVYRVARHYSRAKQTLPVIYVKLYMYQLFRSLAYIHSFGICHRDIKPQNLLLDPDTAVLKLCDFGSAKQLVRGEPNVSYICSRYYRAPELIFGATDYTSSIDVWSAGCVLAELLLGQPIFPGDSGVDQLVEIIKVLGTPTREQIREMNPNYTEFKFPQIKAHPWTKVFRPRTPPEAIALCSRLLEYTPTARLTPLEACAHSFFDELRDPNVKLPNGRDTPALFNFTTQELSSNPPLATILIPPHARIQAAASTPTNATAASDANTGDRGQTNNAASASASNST

| Compound | IC50 [nM] |
| --- | --- |
| Cn1c(SCc2cn(-c3ccccc3F)nn2)nc(-c2ccccc2)cc1=O [Pyrimidin-4-one-1,2,3-triazole conjugate, 3j] | 122 |
| Cn1c(SCc2cn(-c3ccc(F)cc3)nn2)nc(-c2ccccc2)cc1=O [Pyrimidin-4-one-1,2,3-triazole conjugate, 3b] | 200 |
| COc1ccc(-n2cc(CSc3nc(-c4ccccc4)cc(=O)n3C)nn2)cc1 [Pyrimidin-4-one-1,2,3-triazole conjugate, 3o] | 1140 |
| CCc1ccc(-n2cc(CSc3nc(-c4ccccc4)cc(=O)n3C)nn2)cc1 [Pyrimidin-4-one-1,2,3-triazole conjugate, 3g] | 94 |
| Cn1c(SCc2cn(-c3cccnc3)nn2)nc(-c2ccccc2)cc1=O [Pyrimidin-4-one-1,2,3-triazole conjugate, 3l] | 1740 |
| Cn1c(SCc2cn(-c3ccccc3)nn2)nc(-c2ccccc2)cc1=O [Pyrimidin-4-one-1,2,3-triazole conjugate, 3e] | 916 |
| COc1ccccc1-n1cc(CSc2nc(-c3ccccc3)cc(=O)n2C)nn1 [Pyrimidin-4-one-1,2,3-triazole conjugate, 3i] | 1310 |
| Cn1c(SCc2cn(-c3ccc(Br)cc3)nn2)nc(-c2ccccc2)cc1=O [Pyrimidin-4-one-1,2,3-triazole conjugate, 3a] | 744 |
| Cn1c(SCc2cn(-c3ccc(Cl)cc3)nn2)nc(-c2ccccc2)cc1=O [Pyrimidin-4-one-1,2,3-triazole conjugate, 3p] | 1560 |
| CCOc1ccc(-n2cc(CSc3nc(-c4ccccc4)cc(=O)n3C)nn2)cc1 [Pyrimidin-4-one-1,2,3-triazole conjugate, 3h] | 1440 |

Continued by falling IC50, values first:

| IC50 [nM] | Compound |
| --- | --- |
| 1340 | Cn1c(SCc2cn(-c3ccc(C(C)(C)C)cc3)nn2)nc(-c2ccccc2)cc1=O [Pyrimidin-4-one-1,2,3-triazole conjugate, 3f] |
| 587 | Cn1c(SCc2cn(-c3ccc([N+](=O)[O-])cc3)nn2)nc(-c2ccccc2)cc1=O [Pyrimidin-4-one-1,2,3-triazole conjugate, 3q] |
| 577 | Cn1c(SCc2cn(-c3ccccc3Cl)nn2)nc(-c2ccccc2)cc1=O [Pyrimidin-4-one-1,2,3-triazole conjugate, 3m] |
| 502 | Cn1c(SCc2cn(-c3cccc(Cl)c3)nn2)nc(-c2ccccc2)cc1=O [Pyrimidin-4-one-1,2,3-triazole conjugate, 3k] |
| 437 | Cn1c(SCc2cn(-c3ccccc3Br)nn2)nc(-c2ccccc2)cc1=O [Pyrimidin-4-one-1,2,3-triazole conjugate, 3c] |
| 302 | Cc1ccccc1-n1cc(CSc2nc(-c3ccccc3)cc(=O)n2C)nn1 [Pyrimidin-4-one-1,2,3-triazole conjugate, 3d] |
| 153 | Cn1c(SCc2cn(-c3cccc([N+](=O)[O-])c3)nn2)nc(-c2ccccc2)cc1=O [Pyrimidin-4-one-1,2,3-triazole conjugate, 3r] |
| 82 | Cc1ccc(-n2cc(CSc3nc(-c4ccccc4)cc(=O)n3C)nn2)cc1C [Pyrimidin-4-one-1,2,3-triazole conjugate, 3n] |
